From the supplement of paper PMC10307832

Experiments:
Assay in all cases: relative viability (nuclei count vs DMSO), 5 days (fraction); higher = more cells survive
Vandetanib + Lapatinib = compound: COc1cc2/c(=N/c3ccc(Br)cc3F)nc[nH]c2cc1OCC1CCN(C)CC1 [Vandetanib] + CS(=O)(=O)CCNCc1ccc(-c2ccc3ncnc(Nc4ccc(OCc5cccc(F)c5)c(Cl)c4)c3c2)o1 [Lapatinib] (partner 2 µM)
Procedure, shortened: (§1)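 Lung cancer cell lines in 1536-well plates were dosed by pin tool the day after seeding, either with one drug alone or with a fixed anchor-drug dose plus five library-drug doses (not always all listed) in √10 steps. After 5 days, cells were fixed and their nuclei stained in one step (final 0.05% Triton X-100, 1% formaldehyde, 1 ug/ml Hoechst), then counted on 4× images. Relative viability is the nuclei count in treated wells divided by that in vehicle wells. Values are medians of duplicate plates.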

[1] = compound: C1=CC=C2C(=C1)N=C(S2)C(C#N)C3=NC(=NC=C3)NCCC4=CN=CC=C4 + CC(C)C[C@H](NC(=O)[C@H](Cc1ccccc1)NC(=O)c1cnccn1)B(O)O [Bortezomib] (partner 0.002 µM)
Procedure, shortened: as §1

[2] = compound: C1=CC=C2C(=C1)N=C(S2)C(C#N)C3=NC(=NC=C3)NCCC4=CN=CC=C4 + Cc1cc(Nc2cc(N3CCN(C)CC3)nc(Sc3ccc(NC(=O)C4CC4)cc3)n2)n[nH]1 [Tozasertib] (partner 0.1 µM)
Procedure, shortened: as §1

CUDC-101 + Linsitinib = compound: C#Cc1cccc(Nc2ncnc3cc(OC)c(OCCCCCCC(=O)NO)cc23)c1 [CUDC-101] + C[C@]1(O)C[C@@H](c2nc(-c3ccc4ccc(-c5ccccc5)nc4c3)c3c(N)nccn32)C1 [Linsitinib] (partner 1 µM)
Procedure, shortened: as §1

Cell Line	relative viability (Vandetanib + Lapatinib; first compound 0.02 µM)	relative viability (Vandetanib + Lapatinib; first compound 0.06325 µM)	relative viability (Vandetanib + Lapatinib; first compound 0.2 µM)	relative viability (Vandetanib + Lapatinib; first compound 0.6325 µM)	relative viability (Vandetanib + Lapatinib; first compound 2 µM)	relative viability ([1]; first compound 0.005 µM)	relative viability ([1]; first compound 0.01581 µM)	relative viability ([1]; first compound 0.05 µM)	relative viability ([1]; first compound 0.5 µM)	relative viability ([2]; first compound 0.005 µM)	relative viability ([2]; first compound 0.01581 µM)	relative viability ([2]; first compound 0.05 µM)	relative viability ([2]; first compound 0.1581 µM)	relative viability ([2]; first compound 0.5 µM)	relative viability (CUDC-101 + Linsitinib; first compound 0.01 µM)	relative viability (CUDC-101 + Linsitinib; first compound 0.03162 µM)	relative viability (CUDC-101 + Linsitinib; first compound 0.1 µM)	relative viability (CUDC-101 + Linsitinib; first compound 0.3162 µM)	relative viability (CUDC-101 + Linsitinib; first compound 1 µM)	relative viability ([1]; first compound 0.1581 µM)
NCI-H2405	1.1	0.842	1.25	1.14	0.316	1.04	0.965	0.982	0.998	0.714	0.72	0.672	0.701	0.616	1.03	0.702	0.981	1.14	0.851	–
NCI-H3122	1.05	0.975	1.04	1.06	1	0.877	1.05	0.958	1.07	0.46	0.419	0.433	0.386	0.344	1.06	1.01	1.03	1.08	0.989	1.05
PC-3 [JPC-3]	0.442	0.482	0.49	0.458	0.41	0.527	0.854	0.826	0.81	0.661	0.927	0.866	0.791	0.706	0.987	0.91	0.789	0.667	0.383	0.923
PC-14	0.295	0.382	0.308	0.273	0.282	0.665	1.12	0.9	0.679	0.573	0.667	0.554	0.631	0.45	0.986	0.782	1.01	0.683	0.137	0.965
RERF-LC-KJ	0.848	0.839	0.827	0.843	0.878	1.02	1.12	0.971	0.905	0.535	0.549	0.507	0.472	0.413	0.965	1.01	0.839	0.849	0.694	1.16
SK-LU-1	0.859	0.676	0.992	0.832	0.816	0.871	–	0.998	1.23	0.293	0.344	0.33	0.309	0.299	1.17	0.942	1.08	0.868	0.773	1.42
SW 1573	1.07	1.21	0.599	1.2	1.17	0.659	1.26	–	0.936	0.174	0.179	–	0.175	0.156	0.867	0.919	0.915	0.955	0.637	1.1
